Tests used:
[1] = target: T1, neutral endopeptidase enzyme (NEP) (Rattus norvegicus, UniProt P07861); assay: In vitro NEP-inhibitory activity (inhibition of formation of [^3 H]-Tyr-Gly-Gly from [^3 H][Leu^5 ]-enkephaline in kidney cortex membranes); assay type: biochemical, male Sprague-Dawley rats; conditions: rat kidney cortex membranes 5 μg/ml protein; [^3 H][Leu^5 ]-enkephaline 15 nM; Bestatin 1 mM; pH 7.4; 20 minutes at 30° C.
T1 construct: Membranes from kidney cortex were prepared according to the following procedure; from tissue; host or cells: kidney cortex membranes of male Sprague-Dawley rats
T1 sequence (P07861 1-750): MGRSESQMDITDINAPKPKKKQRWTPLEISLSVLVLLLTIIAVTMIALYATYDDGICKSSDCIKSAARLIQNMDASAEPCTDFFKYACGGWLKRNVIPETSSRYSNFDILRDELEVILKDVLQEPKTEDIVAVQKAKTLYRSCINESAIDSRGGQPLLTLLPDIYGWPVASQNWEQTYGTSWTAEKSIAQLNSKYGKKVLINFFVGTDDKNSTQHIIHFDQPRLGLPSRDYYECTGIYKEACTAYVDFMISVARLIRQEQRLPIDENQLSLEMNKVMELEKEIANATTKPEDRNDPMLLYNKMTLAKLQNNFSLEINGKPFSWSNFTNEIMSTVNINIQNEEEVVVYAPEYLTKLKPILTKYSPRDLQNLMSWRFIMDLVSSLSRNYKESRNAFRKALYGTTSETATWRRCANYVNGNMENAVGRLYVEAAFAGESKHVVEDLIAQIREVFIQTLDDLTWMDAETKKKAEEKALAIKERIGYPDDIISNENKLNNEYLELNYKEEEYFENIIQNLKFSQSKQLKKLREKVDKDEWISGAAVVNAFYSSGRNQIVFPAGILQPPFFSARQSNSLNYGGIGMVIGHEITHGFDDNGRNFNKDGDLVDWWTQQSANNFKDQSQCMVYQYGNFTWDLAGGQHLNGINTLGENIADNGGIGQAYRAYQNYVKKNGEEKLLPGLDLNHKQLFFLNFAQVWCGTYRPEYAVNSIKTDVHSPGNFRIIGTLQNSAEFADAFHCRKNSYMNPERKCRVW
Procedure: The NEP-inhibitory activity of the compounds of formula I was evaluated by means of in vitro tests as percentage of inhibition in the formation of [^3 H]-Tyr-Gly-Gly, a metabolite of [^3 H][Leu^5 ]-enkephaline(see example 26).
a) In vitro NEP-inhibitory activity
The NEP-inhibitory activity in vitro was evaluated according to the method reported in the literature by C. Llorens et al., Eur. J. Pharmacol., 69, (1981), 113-116.
Membranes from kidney cortex were prepared according to the following procedure.
By working at 0°-4° C. the kidneys were removed from killed male Sprague-Dawley rats weighing approximately 300 g.
Cortex was carefully dissected, finely minced and suspended in homogenization buffer (10 mM sodium phosphate pH 7.4 containing 1 mM MgCl2, 30 mM NaCl, 0.02% NaN3) 1:15 weight/volume.
The tissue was then homogenized for 30 seconds using an Ultra-Turrax homogenizer.
Approximately 10 ml of homogenate were layered over 10 ml of sucrose (41% weight/volume) and centrifuged at 31200 rpm for 30 minutes at 4° C. in a fixed angle rotor.
The membranes were collected from the buffer/sucrose interface, washed twice with 50 mM TRIS/HCl buffer (pH 7.4) and resuspended into the same buffer for storage.
The membranes were stored in small aliquots at -80° C. until use. The NEP-inhibitory activity was evaluated by using the following method.
Aliquots of the membrane suspension prepared as above described (concentration 5 μg/ml of proteins) were preincubated in the presence of an aminopeptidase inhibitor (Bestatin - 1 mM) for 10 minutes at 30° C.
[^3 H][Leu^5 ]-enkephaline (15 nM) and buffer TRIS/HCl pH 7.4 (50 mM) were added in order to obtain a final volume of 100 μl.
Incubation (20 minutes at 30° C.) was stopped by adding 0.1M HCl (100 μl).
The formation of the metabolite [^3 H]Tyr-Gly-Gly was quantified by chromatography on polystyrene columns (Porapak Q).
The percentage of inhibition of the metabolite formation in the membrane preparations treated with the compounds of formula I and the reference compounds in comparison to the untreated membrane preparations was expressed as IC50 value (nM).

[2] = target: T2, endothelin converting enzyme (ECE) (Oryctolagus cuniculus, UniProt A0A5F9CTJ8); assay: In vitro ECE-inhibitory activity (human Big endothelin-induced contraction of rabbit left saphenous artery rings; inhibition of endothelin formation); assay type: cell-based, Male New Zealand rabbits; conditions: human Big endothelin 3×10^-8 M, compound in contact 30 minutes, 37° C.
T2 construct: The left saphenous artery was removed and cleaned of the surrounding tissue; from tissue; host or cells: left saphenous artery rings of male New Zealand rabbits, with endothelium
T2 sequence (A0A5F9CTJ8 1-783): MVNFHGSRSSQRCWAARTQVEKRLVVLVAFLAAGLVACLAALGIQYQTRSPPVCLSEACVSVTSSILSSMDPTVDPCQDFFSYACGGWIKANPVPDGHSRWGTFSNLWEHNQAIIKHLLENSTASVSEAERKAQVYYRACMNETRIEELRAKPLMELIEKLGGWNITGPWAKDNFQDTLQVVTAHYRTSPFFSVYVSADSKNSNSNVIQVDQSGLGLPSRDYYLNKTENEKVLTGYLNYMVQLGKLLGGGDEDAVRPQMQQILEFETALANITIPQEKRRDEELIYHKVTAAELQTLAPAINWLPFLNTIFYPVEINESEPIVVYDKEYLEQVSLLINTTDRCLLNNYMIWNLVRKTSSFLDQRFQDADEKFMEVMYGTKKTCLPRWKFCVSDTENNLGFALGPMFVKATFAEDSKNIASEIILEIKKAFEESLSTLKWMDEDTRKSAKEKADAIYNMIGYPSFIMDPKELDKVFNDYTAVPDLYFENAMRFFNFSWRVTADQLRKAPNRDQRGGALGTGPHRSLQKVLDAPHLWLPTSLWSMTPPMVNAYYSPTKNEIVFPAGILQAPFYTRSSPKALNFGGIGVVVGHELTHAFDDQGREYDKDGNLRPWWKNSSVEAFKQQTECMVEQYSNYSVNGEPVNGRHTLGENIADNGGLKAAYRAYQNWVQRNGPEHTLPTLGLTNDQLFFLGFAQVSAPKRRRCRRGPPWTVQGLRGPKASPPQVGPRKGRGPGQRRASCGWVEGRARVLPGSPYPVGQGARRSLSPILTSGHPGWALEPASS
Procedure: b) In vitro ECE-inhibitory activity
The ECE-inhibitory activity in vitro was evaluated according to the method reported in the literature by M. Auget et al., Eur. J. Pharmacol., 224, (1992), 101-102.
Male New Zealand rabbits (2.5-3 Kg) were sacrificed with an excess of pentobarbital and blood was drawn.
The left saphenous artery was removed and cleaned of the surrounding tissue, cut into 2-3 mm length rings and suspended in 25 ml baths containing Krebs-Henseleit solution at 37° C. and oxygenated with O2 containing 5% CO2. This solution was composed of (mM); NaCl, 118; KCl, 4.7; CaCl2, 2.5; KH2 PO4, 1.2; MgSO4, 1.2; NaHCO3, […]; glucose, 11. The preparations were kept under tension and readjusted to 1 g during the equilibration period (1 hour).
After said period, the preparations were exposed to a submaximal concentration of norepinephrine 1 μM which was repeated every 30 minutes until the response was stable. A concentration of acetylcholine 10 μM on the contraction of norepinephrine verified the presence of the endothelium.
After 30 minutes from the last contraction due to norepinephrine, a concentration of human Big endothelin 3×10^-8 M was administered. After reaching the plateau the preparations were washed for 30 minutes and a concentration 1 μM of the compound to be tested or of its vehicle was administered keeping it in contact for 30 minutes, after that a concentration of Big endothelin 3×10^-8 M was administered again. The percentage of ECE-inhibition was expressed as IC50 value (nM).

SMILES	IC50 [1]	IC50 [2]
O=C(O)c1cccc(NC(=O)C(CS)Cc2ccccc2)c1 (stereo not drawn) [R-1, N-(3-carboxyphenyl)-3-mercapto-2-benzyl-propanamide, reference compound]	3.12 nM	
O=C(O)Cc1csc(NC(=O)C(CS)Cc2ccccc2)n1 (stereo not drawn) [R-2, N-(4-carboxymethyl-2-thiazolyl)-3-mercapto-2-benzyl-propanamide, reference compound]	8.8 nM	
O=C(O)c1cc(NC(=O)C(CS)Cc2ccccc2)cs1 (stereo not drawn) [compound 2, N-(2-carboxy-4-thienyl)-3-mercapto-2-benzyl-propanamide]	1.5 nM	2 nM
O=C(O)c1cc(NC(=O)C(CS)Cc2ccccc2)c[nH]1 (stereo not drawn) [compound 4, N-(2-carboxy-4-pyrrolyl)-3-mercapto-2-benzyl-propanamide]	2.1 nM	2 nM
O=C(O)c1cc(NC(=O)C(CS)Cc2cccnc2)cs1 (stereo not drawn) [compound 6, N-(2-carboxy-4-thienyl)-3-mercapto-2-(3-pyridylmethyl)-propanamide]	12.6 nM	1 nM
O=C(O)c1cc(NC(=O)C(CS)Cc2ccc(Cl)cc2)c[nH]1 (stereo not drawn) [compound 9, N-(2-carboxy-4-pyrrolyl)-2-(4-chlorobenzyl)-3-mercapto-propanamide]	2.7 nM	4 nM
COc1cccc(CC(CS)C(=O)Nc2c[nH]c(C(=O)O)c2)c1 (stereo not drawn) [compound 13, N-(2-carboxy-4-pyrrolyl)-3-mercapto-2-(3-methoxybenzyl)-propanamide]	5 nM	3 nM

Reference: patent US5506259A, “β-mercapto-propanamide derivatives useful in the treatment of cardiovascular diseases” (Zambon Group S.p.A., priority 1993, dated 1996)
